According to patent US8894993B2, “Mitochondria-targeted antioxidants” (Natreon Inc., priority 2006, dated 2014):
Values belong to the compound of their own block, whether it stands above or below them.

Assays:
[1] = DBP products in mice liver mitochondria before and after DBPs treatment, HPTLC; type: in vivo, Swiss Albino mice; settings: one hour after i.p. 4:1 mixture of 3,8-(OH)2-DBP and 3-OH-DBP 20 mg/Kg
Protocol: Mitochondria were isolated from heart and liver of chicken, goat and mice following a published procedure (Liu Y, Deng F, Zhao R and Qu S, Chemosphere, 40(8):851-854, 2000). […] The tissue was cut into small pieces, homogenized and centrifuged at 900 g for one minute. The supernatant was again centrifuged twice, for 20 minutes each time at 900 g. The sediment at each step was discarded. The clear supernatant was centrifuged twice at 12,000 g, 20 minutes each time, to form pellets of a mitochondria-enriched fraction. The fraction was divided into two parts. One part was resuspended in a measured volume of distilled water and sonicated (10 min×2). […] The two extracts were subjected to comprehensive HPTLC and HPLC analyses for detection and quantitation of DBPs and their equivalents. […] One hour after administration the animals were sacrificed and mitochondria from liver were isolated and analyzed as described for Example 6. […] Mobile Phase—Chloroform:Methanol 90:10 Sample application—CAMAG LINOMAT 5 (Automated applicator) Detection—240 nm (CAMAG TLC SCANNER 3) 3-OH-DBP and 3,8-(OH)2-DBP (and their conjugates) were detected in mitochondria of control mice by HPTLC. Administration of DBPs to the animals increased the amount of DBPs and its products in mitochondria as detected by using authentic markers of the two DBPs (Table 2).

[2] = test system: stress-induced lipid peroxidation of mouse liver mitochondria; assay: Stress-induced lipid peroxidation of mouse liver mitochondria (thiobarbituric acid reaction); type: in vivo, Swiss albino mice; settings: oral each 5 mg/Kg b.w. per day for 5 days, hypoxic stress, control 0.495
Protocol: (§1) Swiss albino mice (20±g) were fed orally with—(a) 3,8-(OH)2-DBP; (b) CoQ10; (c) a combination of 3,8-(OH)2-DBP and CoQ10 and (d) 3,8-(OH)2-DBP and CoQ10 in a clathrated form with fusoms (each 5 mg/Kg b.w.), per day, for 5 days. The animals were subjected to hypoxic stress for 1 hour each day for 3 days from the 3rd day of the experiment. After the stipulated time-period, brain and liver of the animals were collected and mitochondria from the liver were separated as described previously (Liu Y, Deng F, Zhao R and Qu S, Chemosphere, 40(8):851-854, 2000). Lipid peroxidation in brain and liver-mitochondria was estimated by the method of Ohkawa et al. (Ohkawa H, Ohishi N and Yagi K, Assay for lipid peroxides in animal tissues by thiobarbituric acid reaction. Anal. Biochem., 95:351-358, 1979).

[3] = test system: stress-induced lipid peroxidation of mouse brain; assay: Stress-induced lipid peroxidation of mouse brain (thiobarbituric acid reaction); type: in vivo, Swiss albino mice; settings: oral each 5 mg/Kg b.w. per day for 5 days, hypoxic stress, control 1.169
Protocol: as §1

[4] = Coenzyme Q in mice blood plasma and organs after oral feeding, HPLC; type: in vivo, Swiss albino mice; settings: oral each 5 mg/Kg b.w. per day for 5 days
Protocol: One year old caged stressed Sprague-Dawley rats (250-270 gms) were fed the following, individually or in combination after suspension in 0.8% carboxymethyl cellulose: CoQ10 (5 mg/Kg b.w./day) and 3,8-(OH)2-DBP (5 mg/Kg b.w./day) for 5 days. Blood was collected by puncture of the retro-orbital plexus. The plasma was separated by centrifugation, extracted with methanol and subjected to HPLC. In another experiment, Swiss albino mice (20±2 g) were fed orally with—(a) 3,8-(OH)2-DBP; (b) CoQ10; (c) a combination of 3,8-(OH)2-DBP and CoQ10 and (d) 3,8-(OH)2-DBP and CoQ10 in a clathrated form with Shilajit-fusoms (each 5 mg/Kg b.w.), per day, for 5 days. The animals were subjected to hypoxic stress for 1 hour each day for 3 days from the 3rd day of the experiment. After the stipulated time-period, the content of CoQ10 and their conjugates with DBP were estimated in heart, kidney, liver (in wet weight basis) and in blood, by HPLC, after proper extraction from the tissues according to the procedure depicted in the literature (Rousseau, G and Varin, F, Determination of Ubiquinone-9 and 10 levels in rat tissues and blood by High Performance Liquid Chromatography with Ultraviolet detection. J. Chromat. Sci., 36(5): 247-252, 1998).
Column—RP C18 Xterra [250×4 mm]
(§2) Mobile phase—Methanol:Acetonitrile:Ethanol 30:30:40
(§3) Detection—PDA 275 nm for CoQ10
Bioavailability was more when CoQ10 and 3,8-(OH)2-DBP using the fulvic acid system. A systemic increment of CoQ10 was also observed in mice blood plasma and a few organs upon oral feeding of this formulation. The extent of the increment of CoQ10 was more when CoQ10 and 3,8-(OH)2-DBP were targeted to mitochondria using the fulvic acid delivery system (Table 5). A similar trend in the increment was also observed in the case of CoQ10-DBP conjugates when the fulvic acid system was used. […] Thus, concurrent supplementation of CoQ10 and 3,8-(OH)2-DBP [or 3-OH-DBP, which is systemically converted into 3,8-(OH)2-DBP] using a fulvic acid delivery system would efficiently perform their targeting to mitochondria. This can be regarded as effective therapeutic strategy against stress-induced oxidative damage of cells and DNA damage due to old-age.

[5] = Inhibition of CoQ-CoQH2 aberrant metabolite formation during red-ox recycling, HPLC; type: physicochemical; settings: in vitro
Protocol: Methanolic solution of coenzyme Q10 (1 mg/ml) was reduced by NaBH4 to pH 8 when the yellow solution became colorless. About 1 mg of 3,8-(OH)2-DBP was added to the solution and the mixture was analyzed by HPLC at different time intervals (0-80 min). A control CoQ10, without 3,8-(OH)2-DBP, was prepared similarly and analyzed at different time intervals (0-80 min).
Column—NovaPak RP C18 [250×4 mm]
as §2, §3
Reduced CoQ10 (CoQH2) has a tendency to rapidly autoxidize in the presence of air. […] The aberrant metabolites increased rapidly with time (Table 10).

[6] = Stability of reduced CoQ10 (CoQH2) by 3,8-(OH)2-DBP at different pH, HPLC; type: physicochemical; settings: for Reduced CoQ10 remaining in control: no DBP
Protocol: Two mg of solid CoQ10 (SRL, India), in an airtight vial was dissolved in 1 ml of methanol. After thorough vortexing, 5 mg of solid NaBH4 (Merck India) was added, 1 mg at a time, to the yellow colored solution of CoQ10 in methanol and kept in an ice-bath for a few minutes. The vial was kept shut to avoid contact with air but opened occasionally to avoid generation of pressure inside due to accumulation of hydrogen. After the reduction reaction, a clear colorless solution was obtained to which methanolic solution of 3,8-(OH)2-DBP with a concentration of 1 mg/ml (>90% pure) was added in a ratio of 1:1 to obtain a final concentration of the mixture—reduced CoQ10 […] DBP 0.5 mg/ml. This solution was analyzed by HPLC for reduced CoQ10 content at different time intervals. A control was prepared in similar fashion except that no DBP was added. The pH of the solutions was determined to be 8 using pH paper. To obtain solutions of reduced CoQ10 with pH 7 and pH 3, aliquots of concentrated HCl were added to the methanolic solution of reduced CoQ10 at pH 8. Afterwards, a solution of DBP was added and analysis by HPLC at different time intervals was conducted, as before.
as §2
Detection—PDA 290 nm for reduced CoQ10

[7] = as above; type: physicochemical

SMILES: O=c1oc2cc(O)ccc2c2cc(-c3cc4c(cc3O)c(=O)oc3cc(O)ccc34)c(O)cc12 [3,8-(OH)2-DBP-dimer, 3,3′,8,8′-tetrahydroxy-9,9′-bis-dibenzo-α-pyrone]
- Amount in mitochondria after DBP treatment [1]: 28.6 nmol/gm wet wt

- concentration at 5 days ([4]; Swiss albino, mouse, blood): 810 nM
- Coenzyme Q: Heart ([4]; wet weight): 35.69 nmol/gm
- Coenzyme Q: Kidney ([4]; wet weight): 16.51 nmol/gm
- Coenzyme Q: Liver ([4]; wet weight): 19.41 nmol/gm
SMILES: COC1=C(OC)C(=O)C(C/C=C(\C)CC/C=C(\C)CC/C=C(\C)CC/C=C(\C)CC/C=C(\C)CC/C=C(\C)CC/C=C(\C)CC/C=C(\C)CC/C=C(\C)CCC=C(C)C)=C(C)C1=O [CoQ10]
- OD Values at 532 nm (lipid peroxidation) [2]: 0.467
- OD Values at 532 nm (lipid peroxidation) [3]: 1.147

- Relative percentage of aberrant metabolites in absence of 3,8-(OH)2-DBP ([5]; pH 8, 0 minutes): 0%
- Relative percentage of aberrant metabolites in absence of 3,8-(OH)2-DBP ([5]; pH 8, 40 minutes): 93%
- Relative percentage of aberrant metabolites in absence of 3,8-(OH)2-DBP ([5]; pH 8, 80 minutes): 96%
- Reduced CoQ10 remaining in control ([6]; pH 3, 0 hour): 100.00%
- Reduced CoQ10 remaining in control ([6]; pH 3, 48 hour): 57.25%
- Reduced CoQ10 remaining in control ([6]; pH 3, 72 hour): 61.95%
- Reduced CoQ10 remaining in control ([6]; pH 7, 0 hour): 100.00%
- Reduced CoQ10 remaining in control ([6]; pH 7, 48 hour): 7.73%
- Reduced CoQ10 remaining in control ([6]; pH 7, 72 hour): 3.70%
- Reduced CoQ10 remaining in control ([6]; pH 8, 0 min, methanol): 100.00%
- Reduced CoQ10 remaining in control ([6]; pH 8, 40 min, methanol): 79.18%
- Reduced CoQ10 remaining in control ([6]; pH 8, 60 min, methanol): 54.09%
- Reduced CoQ10 remaining in control ([6]; pH 8, 80 min, methanol): 33.17%
- Reduced CoQ10 remaining in control ([6]; pH 8, 100 min, methanol): 20.87%
SMILES: COc1c(O)c(C)c(C/C=C(\C)CC/C=C(\C)CC/C=C(\C)CC/C=C(\C)CC/C=C(\C)CC/C=C(\C)CC/C=C(\C)CC/C=C(\C)CC/C=C(\C)CCC=C(C)C)c(O)c1OC [Reduced CoQ10, reference compound]
- Regenerated CoQ10 in absence of 3,8-(OH)2-DBP ([6]; autoxidation of CoQH2, pH 8, 0 min): 0 µg/mL
- Regenerated CoQ10 in absence of 3,8-(OH)2-DBP ([6]; autoxidation of CoQH2, pH 8, 60 min): 184.68 µg/mL
- Regenerated CoQ10 in absence of 3,8-(OH)2-DBP ([6]; autoxidation of CoQH2, pH 8, 80 min): 202.28 µg/mL
- Regenerated CoQ10 in absence of 3,8-(OH)2-DBP ([6]; autoxidation of CoQH2, pH 8, 100 min): 109.23 µg/mL
- Regenerated CoQ10 in absence of 3,8-(OH)2-DBP ([7]; autoxidation of CoQH2, pH 8, 20 min): 5.49 µg/mL
- Regenerated CoQ10 in absence of 3,8-(OH)2-DBP ([7]; autoxidation of CoQH2, pH 8, 40 min): 72.98 µg/mL
